Data set [1] has as its system SIINFEKL stimulated IFN-γ-secreting cells. Nature of the data set: Elispot assay of antigen-specific CD8+ T cell activity in splenic cells of immunized mice. The data set is classed as in vivo, C57BL/6 mice. To be noted: for antigen-specific CD8+ T cell response, Elispot, FIG. 10A: gentiotriose archaeol/anionic lipid/cholesterol (35/35/30, mol %), weeks 6 and 8; for CD8+ T cell adjuvant activity, Elispot, FIG. 7C: glyco-archaeol/DPPG/cholesterol (25/55/20, mol %). The procedure:
To determine adjuvant activity, various synthetic archaeosomes with OVA entrapped (OVA-archaeosomes) were used to immunize female C57BL/6 mice on days 0 and 21 (6-8 weeks old on first injection). Injections were subcutaneous at the tail base with 0.1 ml PBS containing 15 μg OVA entrapped in 0.2-0.63 mg lipids. Blood samples were collected from the tail vein for anti-OVA IgG/IgM antibody titration done by ELISA (13). In some cases faecal extracts were assayed for IgA (and IgG) to assess mucosal responses following systemic immunizations. Fresh faeces (about 30 mg dry weight) were collected from 4 mice/group, and extracted by adding 0.5 ml of phosphate buffered saline (pH 7.0) containing 10% fetal calf serum and 0.1% sodium azide. Homogenized samples were centrifuged and Elisa measured anti OVA antibody in supernatants. Spleens were collected to determine CTL activity using the Cr^51-assay with specific and non-specific targets EG.7 and EL-4, respectively (14). In Elispot assays antigen-specific CD8^+ T cell activity was measured in splenic cells from immunized mice by determining the number of […] stimulated IFN-γ-secreting cells per 5×10^5 splenic cells (15).

A further data set deals with anti-OVA antibody. The data set can be described thus: Anti-OVA IgG/IgM antibody titration in blood of immunized mice by ELISA. The data set is classed as in vivo, C57BL/6 mice. To be noted: for antigen-specific antibody response, FIG. 10B: gentiotriose archaeol/anionic lipid/cholesterol (35/35/30, mol %), 9 weeks. How it is done:
(§1) To determine adjuvant activity, various synthetic archaeosomes with OVA entrapped (OVA-archaeosomes) were used to immunize female C57BL/6 mice on days 0 and 21 (6-8 weeks old on first injection). Injections were subcutaneous at the tail base with 0.1 ml PBS containing 15 μg OVA entrapped in 0.2-0.63 mg lipids. Blood samples were collected from the tail vein for anti-OVA IgG/IgM antibody titration done by ELISA (13). In some cases faecal extracts were assayed for IgA (and IgG) to assess mucosal responses following systemic immunizations. Fresh faeces (about 30 mg dry weight) were collected from 4 mice/group, and extracted by adding 0.5 ml of phosphate buffered saline (pH 7.0) containing 10% fetal calf serum and 0.1% sodium azide. Homogenized samples were centrifuged and Elisa measured anti OVA antibody in supernatants. Spleens were collected to determine CTL activity using the Cr^51-assay with specific and non-specific targets EG.7 and EL-4, respectively (14). In Elispot assays antigen-specific CD8^+ T cell activity was measured in splenic cells from immunized mice by determining the number of SIINFEKL stimulated IFN-γ-secreting cells per 5×10^5 splenic cells (15).

For data set [2], the system named is antigen specific EG.7 targets. The data set can be described thus: CTL activity in splenocytes of immunized mice, Cr51-assay. Type of data set: in vivo, C57BL/6 mice. Particulars: for CTL adjuvant activity, FIG. 7B: disaccharide-archaeol/DPPG/cholesterol (25/55/20, mol %), 12 weeks. The procedure: as §1
A short description of data set [3]: Archaeosome formation upon hydration and stability on storage (microscopic examination, size). Type of data set: physicochemical. To be noted: lipid hydrated alone. From the text:
Presence of a relationship was explored between adjuvant activity and the mol % of the active ingredient, β-D-Glc-(1,6)-β-D-Glc-archaeol, mixed with DPPG/cholesterol. Cholesterol was maintained constant at 20 mol % with DPPG added as required to balance increasing amounts of β-D-Glc-(1,6)-β-D-Glc-archaeol. […] Hydration became more difficult at 60 mol % D-Glc-(1,6)-β-D-Glc-archaeol, and archaeosomes with 60 mol % of the synthetic glyco-archaeol increased in size during the removal of unentrapped antigen indicating instability (Table 11). […] Immunized mice developed CD8^+ T cell immune responses that were best at 15-45 mol % Glc2-archaeol content (FIG. 5).
The need for cholesterol, and the optimal mol % cholesterol needed to achieve stability of archaeosomes containing 35 mol % D-Glc-(1,6)-β-D-Glc-archaeol was explored. Cholesterol was varied in each preparation from 0, 10, 20, 30 and 45 mol %. DPPG made up the balance of each preparation. Lipids were mixed in solvent and archaeosomes were loaded with the antigen OVA as described in methods. Archaeosomes formed in all cases upon hydrating at 35° C. However, when stored at refrigeration temperatures (4-6° C.) these synthetic archaeosomes with no cholesterol were unstable, converting to amorphous lipid debris and needle shaped crystals. This instability was avoided by inclusion of 10 mol % or more cholesterol. […] The optimal cholesterol was therefore in the range of >10 to <45 mol %.
Archaeosomes/liposomes were prepared by hydrating 20-30 mg lipids at 40° C. in 2 ml of PBS buffer (10 mM sodium phosphate, 160 mM NaCl, pH 7.1) or water with (Ag-loaded) or without (Ag-free) the test antigen OVA dissolved at 10 mg/ml. In some cases, cholesterol (Sigma), DPPS, DPPE, or DPPG (Avanti Polar Lipids) polar lipids were mixed in chloroform/methanol with the synthetic glyco-archaeols. […] Quantification of antigen loading was done by SDS polyacrylamide gel electrophoresis as described and based on salt corrected dry weights (27). Average diameters were determined by particle size analysis using a 5 mW He/Ne laser (Nicomp 370).

Data set [4] has as its system Listeria monocytogenes (LM)-OVA construct. Nature of the data set: Protection against LM-OVA challenge after vaccination, splenic CFU. Type of data set: in vivo. To be noted: glyco-archaeol/DPPG/chol (25/55/20, mol %), FIG. 13. The procedure: FIG. 13 illustrates protection against LM-OVA challenge after vaccination with OVA-adjuvant combinations. C57BL/6J mice were immunized on day 0 and 21 with 15 ug OVA entrapped in various synthetic archaeosomes composed of the respective synthetic glyco-archaeol/DPPG/chol (25/55/20, mol %). At 8 weeks, mice were challenged with 10^4 intravenous dose of Listeria monocytogenes (LM)-OVA construct. Mice were euthanized 3 days later. Mean±SEM of splenic colony forming units (CFU) is shown for each group.

The test system of another data set is B16OVA cells. The data set can be described thus: Skin melanoma solid tumor model, protection upon vaccination. Type of data set: in vivo, C57BL/6 mice. To be noted: 5 mice/group, vaccinated s.c. with 15 μg OVA at 0 and 3 weeks, archaeal lipid/DPPG/cholesterol 25/55/20 mol %. The procedure: A skin melanoma solid tumor model was used in mice to evaluate protection achieved upon vaccination with synthetic archaeosomes. Mice were vaccinated subcutaneously with 15 μg OVA or synthetic archaeosome compositions containing 15 μg OVA at 0 and 3 weeks. Archaeosome lipid compositions were synthetic archaeal lipid/DPPG/cholesterol (25/55/20 mol %). At week 7 post first injection 5×10^6 B16OVA cells were injected subcutaneously in the shaved lower dorsal area. The time was recorded when solid tumours became evident.

Take `CCCCCCCCCCCCCCCC(=O)OCC(COP(=O)(O)OCCN)OC(=O)CCCCCCCCCCCCCCC` (centres unmarked) [DPPE, reference compound]: the “antigen-specific CD8+ T cell response, Elispot, FIG. 10A” value (“antigen-specific CD8+ T cell response” for short) in data set [1] is reported as “relatively low CD8^+ T cell activity”. In addition, the “Elispot activity as % of the activity found for DPPG” value in data set [1] (gentiotriose-archaeol/anionic lipid/cholesterol (35/35/30, mol %), 6 weeks, data not shown) is 27%. In the data set on anti-OVA antibody, the “antigen-specific antibody response, FIG. 10B” value is reported as “equivalent in antibody response to archaeosomes containing archaetidylglycerol”.

On to `CCCCCCCCCCCCCCCC(=O)OCC(COP(=O)(O)OCC(O)CO)OC(=O)CCCCCCCCCCCCCCC` (centres unmarked) [DPPG, dipalmitoylphosphatidylglycerol, reference compound], for which, in data set [1], the “antigen-specific CD8+ T cell response” value is given as “transient”. Regarding `CC(C)CCC[C@@H](C)CCC[C@@H](C)CCC[C@@H](C)CCOC[C@H](CO[C@@H]1O[C@H](CO[C@@H]2O[C@H](CO)[C@@H](O)[C@H](O)[C@H]2O)[C@@H](O)[C@H](O)[C@H]1O)OCC[C@H](C)CCC[C@H](C)CCC[C@H](C)CCCC(C)C` [Glc2-archaeol], the “CTL response, FIG. 4A” value in data set [2] (15 μg OVA s.c. 0 and 3 weeks, 6 weeks from first injection) is “dramatic increase”. In addition, the “mol % Glc2-archaeol content at which CD8+ T cell immune responses were best” value in data set [2] (cholesterol 20 mol %, DPPG remainder, FIG. 5) is listed as 15-45 mol %. In addition, the “archaeosome formation upon hydration” value in data set [3] was “did not form readily”. In addition, in data set [1] (6 weeks), the “CD8+ T cell adjuvant activity, Elispot, FIG. 7C” value was “best”. Further, in the data set with anti-OVA antibody (15 μg OVA s.c. 0 and 3 weeks, 6 and 11 weeks), the “anti-OVA antibody response, FIG. 4B” value was “dramatic increase”. For `CC(C)CCC[C@@H](C)CCC[C@@H](C)CCC[C@@H](C)CCOC[C@H](CO[C@H]1O[C@H](CO)[C@@H](O)[C@H](O)[C@@H]1O)OCC[C@H](C)CCC[C@H](C)CCC[C@H](C)CCCC(C)C` [Man1-C], in data set [3], the “archaeosome formation upon hydration” value was “did not form readily”. Still for that read-out and setting: the same measure for `CC(C)CCC[C@@H](C)CCC[C@@H](C)CCC[C@@H](C)CCOC[C@H](CO[C@H]1O[C@H](CO)[C@@H](O)[C@H](O)[C@@H]1O[C@H]1O[C@H](CO)[C@@H](O)[C@H](O)[C@@H]1O)OCC[C@H](C)CCC[C@H](C)CCC[C@H](C)CCCC(C)C` [Man2-C]: “did not form readily”. In the case of `CC(C)CCC[C@@H](C)CCC[C@@H](C)CCC[C@@H](C)CCOC[C@H](CO[C@@H]1O[C@H](CO[C@@H]2O[C@H](CO[C@@H]3O[C@H](CO)[C@@H](O)[C@H](O)[C@H]3O)[C@@H](O)[C@H](O)[C@H]2O)[C@@H](O)[C@H](O)[C@H]1O)OCC[C@H](C)CCC[C@H](C)CCC[C@H](C)CCCC(C)C` [gentiotriose-A], the “protection from LM-OVA infection” value in data set [4] was “Best protection”.

On to `CC(C)CCC[C@@H](C)CCC[C@@H](C)CCC[C@@H](C)CCOC[C@H](CO[C@@H]1O[C@H](CO[C@H]2O[C@H](CO)[C@@H](O)[C@H](O)[C@H]2O)[C@@H](O)[C@H](O)[C@H]1O)OCC[C@H](C)CCC[C@H](C)CCC[C@H](C)CCCC(C)C` [isomaltose-A], for which the “CD8+ T cell adjuvant activity, Elispot, FIG. 7C” value in data set [1] (6 weeks) is “lower CD8^+ T cell responses”. Moreover, in data set [4], the “protection from LM-OVA infection” value is reported as “less protective”. The “antibody responses, FIG. 7D” value in the data set with anti-OVA antibody (glyco-archaeol/DPPG/cholesterol (25/55/20, mol %), 6 weeks) is given as “quite strong”.

For the molecule `CC(C)CCC[C@@H](C)CCC[C@@H](C)CCC[C@@H](C)CCOC[C@H](CO[C@@H]1O[C@H](CO)[C@@H](O[C@@H]2O[C@H](CO)[C@H](O)[C@H](O)[C@H]2O)[C@H](O)[C@H]1O)OCC[C@H](C)CCC[C@H](C)CCC[C@H](C)CCCC(C)C` [lactose-archaeol], in data set [2], the “CTL adjuvant activity, FIG. 7B” value is given as “strong”.

In the case of `CC(C)CCC[C@@H](C)CCC[C@@H](C)CCC[C@@H](C)CCOC[C@H](CO[C@@H]1O[C@H](CO[C@H]2O[C@H](CO)[C@H](O)[C@H](O)[C@H]2O)[C@@H](O)[C@H](O)[C@H]1O)OCC[C@H](C)CCC[C@H](C)CCC[C@H](C)CCCC(C)C` [melibiose-archaeol], the “CTL adjuvant activity, FIG. 7B” value in data set [2] is reported as “strong”.

On to Sulfonoquinovosyl diacylglycerol [SQDG], for which the “antigen-specific CD8+ T cell response” value in data set [1] is given as “Best activity”.

archaetidylglycerol [AG]: in data set [2] (15 μg OVA s.c. 0 and 3 weeks, spleens 7 weeks after first immunization), the “CTL adjuvant activity, FIG. 3” value is on record as “little ability to serve as adjuvants”. Besides, the “antigen-specific CD8+ T cell response” value in data set [1] is “Best activity”. For “archaetidylglycerophosphate-methyl [AGP-CH3]”, the “antigen-specific CD8+ T cell response” value in data set [1] was “Best activity”. archaetidylinositol: the “antigen-specific antibody response, FIG. 10B” value in the data set with anti-OVA antibody was “favoured the antibody CD4^+ T cell response over the CD8^+ T cell response”.

B1: OVA (protein, UniProt P01012 2-386, looked up)
Ovalbumin: GSIGAASMEFCFDVFKELKVHHANENIFYCPIAIMSALAMVYLGAKDSTRTQINKVVRFDKLPGFGDSIEAQCGTSVNVHSSLRDILNQITKPNDVYSFSLASRLYAEERYPILPEYLQCVKELYRGGLEPINFQTAADQARELINSWVESQTNGIIRNVLQPSSVDSQTAMVLVNAIVFKGLWEKAFKDEDTQAMPFRVTEQESKPVQMMYQIGLFRVASMASEKMKILELPFASGTMSMLVLLPDEVSGLEQLESIINFEKLTEWTSSNVMEERKIKVYLPRMKMEEKYNLTSVLMAMGITDVFSSSANLSGISSAESLKISQAVHAAHAEINEAGREVVGSAEAGVDAASVSEEFRADHPFLFCIKHIATNAVLFFGRCVSP
Turning to B1, the “numbers of mice that developed a solid tumor” value is 2 in the data set on B16OVA cells (6 days from subcutaneous injection of B16OVA tumor cells), 3 with B16OVA cells (9 days from subcutaneous injection of B16OVA tumor cells), 4 in the data set on B16OVA cells (16 days from subcutaneous injection of B16OVA tumor cells) and “euthanized” in the data set on B16OVA cells (20 days from subcutaneous injection of B16OVA tumor cells).

(Values after US8936793B2, “Synthetic archaeal glycolipid adjuvants” (National Research Council of Canada, priority 2006, dated 2015).)
